Tests used:
Assay type in all cases: in vivo
barnyard grass = experiment: Herbicidal activity test against upland field weeds (foliar treatment test); details: Echinochloa crus-galli, 50 g ai/ha, scale 0-100
Summary of the method: (§1)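 Visual 0–100 control ratings relative to untreated plants, taken 14 (or 21) days after spraying foliage at 50 or 75 g a.i./ha. Spray solution: 50% acetone with 0.1% Tween-20; plants kept in greenhouse at 30±5 °C, 14 h light/10 h dark.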

crabgrass [1] = experiment: as above; parameters: key to Foliar treatment herbicidal activity, Crabgrass: 0 (no control); 100 (complete control); details: 50 g ai/ha, scale 0-100; for pest or weed control at 50 g/ha: Digitaria sanguinalis
Summary of the method: as §1

fall panicum [2] = experiment: as above; details: Panicum dichotomiflorum, 50 g ai/ha, scale 0-100
Summary of the method: as §1

black nightshade = experiment: as above; parameters: key to Foliar treatment herbicidal activity, black nightshade: 0 (no control); 100 (complete control); details: 50 g ai/ha, scale 0-100
Summary of the method: as §1

corn = experiment: Phytotoxicity test for upland field crops (foliar treatment test); parameters: key: 0 (no harm); 9 (complete withered)
Summary of the method: (§2)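 Post-emergence spray at 19–300 g a.i./ha (acetone/Tween-20 diluent, 100 ml/m²) onto greenhouse-grown plants. Damage rated 7 and 14 (optionally 21) days later on a 0–9 scale relative to untreated plants.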

cotton = experiment: as above; parameters: key: 0 (no harm); 9 (complete withered)
Summary of the method: as §2

rice = experiment: as above; parameters: key: 0 (no harm); 9 (complete withered)
Summary of the method: as §2

soybean = experiment: as above; parameters: key: 0 (no harm); 9 (complete withered)
Summary of the method: as §2

sorghum = experiment: Herbicidal activity test against upland field weeds (soil treatment test); details: Sorghum, 50 g ai/ha, scale 0 (no control) to 100 (complete control)
Summary of the method: (§3)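 Weed control scored visually on a 0 (none) to 100 (complete) scale versus untreated pots at 14 or 21 days in greenhouse (30±5 °C, 14 h light). Test compounds, 50 or 75 g a.i./ha in 50% acetone/0.1% Tween-20, hand-sprayed onto soil one day post-sowing.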

quack grass = experiment: as above; parameters: key to Soil treatment herbicidal activity, quack grass: 0 (no control); 100 (complete control); details: 50 g ai/ha, scale 0 (no control) to 100 (complete control)
Summary of the method: as §3

crabgrass [3] = experiment: as above; parameters: key to Soil treatment herbicidal activity, Crabgrass: 0 (no control); 100 (complete control); details: 50 g ai/ha, scale 0 (no control) to 100 (complete control)
Summary of the method: as §3

fall panicum [4] = experiment: as above; parameters: key to Soil treatment herbicidal activity, Fall panicum: 0 (no control); 100 (complete control); details: 50 g ai/ha, scale 0 (no control) to 100 (complete control)
Summary of the method: as §3

[5] = 50 g ai/ha, Corn (7 days after treatment)
[6] = 50 g ai/ha, Corn (14 days after treatment)
[7] = 100 g ai/ha, Corn (7 days after treatment)
[8] = 100 g ai/ha, Corn (14 days after treatment)
[9] = 50 g ai/ha, Cotton (7 days after treatment)
[10] = 50 g ai/ha, Cotton (14 days after treatment)
[11] = 100 g ai/ha, Cotton (7 days after treatment)
[12] = 100 g ai/ha, Cotton (14 days after treatment)
[13] = 50 g ai/ha, Rice (7 days after treatment)
[14] = 50 g ai/ha, Rice (14 days after treatment)
[15] = 100 g ai/ha, Rice (7 days after treatment)
[16] = 100 g ai/ha, Rice (14 days after treatment)
[17] = 50 g ai/ha, Soybean (7 days after treatment)
[18] = 50 g ai/ha, Soybean (14 days after treatment)
[19] = 100 g ai/ha, Soybean (7 days after treatment)
[20] = 100 g ai/ha, Soybean (14 days after treatment)

Row | SMILES | pest or weed control at 50 g/ha (barnyard grass) | pest or weed control at 50 g/ha (crabgrass [1]) | pest or weed control at 50 g/ha (fall panicum [2]) | Foliar treatment herbicidal activity, black nightshade (black nightshade) | Foliar treatment phytotoxicity, Corn (corn; [5]) | Foliar treatment phytotoxicity, Corn (corn; [6]) | Foliar treatment phytotoxicity, Corn (corn; [7]) | Foliar treatment phytotoxicity, Corn (corn; [8]) | Foliar treatment phytotoxicity, Cotton (cotton; [9]) | Foliar treatment phytotoxicity, Cotton (cotton; [10]) | Foliar treatment phytotoxicity, Cotton (cotton; [11]) | Foliar treatment phytotoxicity, Cotton (cotton; [12]) | Foliar treatment phytotoxicity, Rice (rice; [13]) | Foliar treatment phytotoxicity, Rice (rice; [14]) | Foliar treatment phytotoxicity, Rice (rice; [15]) | Foliar treatment phytotoxicity, Rice (rice; [16]) | Foliar treatment phytotoxicity, Soybean (soybean; [17]) | Foliar treatment phytotoxicity, Soybean (soybean; [18]) | Foliar treatment phytotoxicity, Soybean (soybean; [19]) | Foliar treatment phytotoxicity, Soybean (soybean; [20]) | also measured
1 | Cc1nc(COCc2nc(C(F)(F)F)ccc2C(=S)Nc2nnnn2C)nn1C [Compound No. 2-117, 2-(((1,5-dimethyl-1H-1,2,4-triazol-3-yl)methoxy)methyl)-N-(1-methyl-1H-tetrazol-5-yl)-6-(trifluoromethyl)pyridin-3-carbothioamide] | 98% | 95% | 40% | 100 | 1 | 1 | 3 | 2 | 3 | 2 | 4 | 2 | 3 | 6 | 4 | 5 | 3 | 5 | 4 | 6 | –
2 | Cn1nnc(CSCc2nc(C(F)(F)F)ccc2C(=O)Nc2nnnn2C)n1 [Compound No. 2-102, N-(1-methyl-1H-tetrazol-5-yl)-2-((((2-methyl-2H-tetrazol-5-yl)methyl)thio)methyl)-6-(trifluoromethyl)nicotinamide] | 95% | – | 80% | 100 | 0 | 0 | 0 | 0 | 0 | 0 | 0 | 0 | 3 | 3 | 4 | 4 | 0 | 0 | 0 | 0 | Foliar treatment herbicidal activity, Crabgrass (crabgrass [1]): 100; plant injury at 50 g/ha (sorghum): 20%; Soil treatment herbicidal activity, quack grass (quack grass): 0; Soil treatment herbicidal activity, Crabgrass (crabgrass [3]): 100; Soil treatment herbicidal activity, Fall panicum (fall panicum [4]): 100
3 | CON(Cc1nnn(C)n1)Cc1nc(C(F)(F)F)ccc1C(=O)Nc1nnnn1C [Compound No. 2-97, 2-((methoxy((2-methyl-2H-tetrazol-5-yl)methyl)amino)methyl)-N-(1-methyl-1H-tetrazol-5-yl)-6-(trifluoromethyl)nicotinamide] | 95% | 95% | 95% | 100 | 0 | 0 | 2 | 1 | 5 | 9 | 6 | 9 | 6 | 8 | 6 | 9 | 5 | 6 | 7 | 9 | –
4 | Cn1nnc(CSCc2nc(C(F)(F)F)ccc2C(=O)N(c2nnnn2C)S(C)(=O)=O)n1 [Compound No. 2-110, N-(1-methyl-1H-tetrazol-5-yl)-2-((((2-methyl-2H-tetrazol-5-yl)methyl)thio)methyl)-N-(methylsulfonyl)-6-(trifluoromethyl)nicotinamide] | 20% | 70% | 70% | 100 | 0 | 0 | 0 | 0 | – | – | – | – | – | – | – | – | – | – | – | – | –
5 | Cc1nc(COCc2nc(C(F)(F)F)ccc2C(=O)Nc2nnnn2C)nn1C [Compound No. 2-116, 2-(((1,5-dimethyl-1H-1,2,4-triazol-3-yl)methoxy)methyl)-N-(1-methyl-1H-tetrazol-5-yl)-6-(trifluoromethyl)nicotinamide] | 98% | 80% | 80% | 100 | 1 | 0 | 2 | 2 | 2 | 1 | 3 | 2 | 4 | 5 | 4 | 5 | 2 | 3 | 3 | 5 | –
6 | Cn1nc(COCc2nc(C(F)(F)F)ccc2C(=O)Nc2nnnn2C)nc1C#N [Compound No. 2-134, 2-(((5-cyano-1-methyl-1H-1,2,4-triazol-3-yl)methoxy)methyl)-N-(1-methyl-1H-tetrazol-5-yl)-6-(trifluoromethyl)nicotinamide] | 98% | 80% | 50% | 100 | 0 | 0 | 0 | 0 | 3 | 2 | 3 | 8 | 3 | 6 | 3 | 7 | 4 | 6 | 4 | 8 | –
7 | Cn1nc(COCc2nc(C(F)(F)F)ccc2C(=O)Nc2nnnn2C)nc1Br [Compound No. 2-136, 2-(((5-bromo-1-methyl-1H-1,2,4-triazol-3-yl)methoxy)methyl)-N-(1-methyl-1H-tetrazol-5-yl)-6-(trifluoromethyl)nicotinamide] | 70% | 60% | 50% | – | 0 | 0 | 2 | 3 | 3 | 6 | 3 | 8 | 4 | 6 | 5 | 7 | 4 | 6 | 4 | 6 | pest or weed control at 50 g/ha (black nightshade; Solanum nigrum): 95%

Source: US12495798B2, “Nicotinamide compound and herbicidal composition comprising compound” (KOREA RESEARCH INSTITUTE OF CHEMICAL TECHNOLOGY, priority 2019, dated 2025)
